Test system: ANCL iNs
Test: Lipofuscin ELISA in ANCL iNs
Format: cell-based, human
Conditions: compared to control; for lipofuscin ELISA signal: ANCL iNs treated for 56 d (prevention), FIG. 7G; for levels of lipofuscin (ELISA): added to ANCL iNs after 56 days of lipofuscin accumulation, 0, 7, 14, 21 d of treatment, FIG. 7I
Method: ANCL patient-derived fibroblasts were treated with 200 μM of L1 or Dfx, or vehicle (0.1% DMSO=Control) for 72 h, before measuring the UV-Vis absorbance spectra of immunoprecipitated CSPα eluted by trypsinization (solid lines). Spectra were re-read after 10 min of 0.1 N HCl treatment (dashed lines). The experiments shown in FIGS. 7B-7I, were conducted using ANCL fibroblasts converted to iNs using BAM+ND1 technique. […] Quantitative immunoblotting was used to measure levels of oligomerized and fully palmitoylated CSPα as well as total SNAP-25. Oligo=oligomers; Palm=palmitoylated. […] The interaction of CSPα with SNAP-25 in ANCL iNs was measured by immunoprecipitating SNAP-25 followed by quantitative immunoblotting of co-immunoprecipitated CSPα (normalized to SNAP-25 IP). Note that mainly CSPα monomers and not oligomers were detected bound to SNAP-25. Control=control sham IP without IgG. […] Turnover of SNAP-25 was determined by cycloheximide chase, while maintaining the iron-chelators or vehicle in the medium. […] In the experiments shown in FIGS. 7E-7G, ANCL iNs treated with L1, Dfx, or vehicle for 56 d and analyzed. […] The levels of lipofuscin were determined by ELISA. In the experiments shown in FIGS. 7H-7I 56 day old untreated ANCL iNs were treated with L1, Dfx, or vehicle, and analyzed. […] Data are from FIG. 7A representative of n=4, FIG. 7B n=4, FIG. 7C n=4, FIG. 7D n=7, FIG. 7F n=4, FIG. 7G n=4, FIG. 7H n=6, FIG. 7I n=3. In FIGS. 7B-7C and FIGS. 7F-7G *P<0.05; **P<0.01; ****P<0.0001 by two-tailed Student's t-test. #P<0.05 by Mann-Whitney-Wilcoxon U test. In FIG. 7D-7C and FIGS. 7H-7I **P<0.01; ***P<0.001; ****P<0.0001 by two-way ANOVA; ##P<0.01; ###P<0.001; ####P<0.0001 by Tukey's multiple comparisons test.
iNs from each well of a 6 well dish were solubilized in 100 μl PBS with 0.1% Triton X-100 for 1 h at 4° C. Post nuclear supernatant collected by centrifugation at 1000 gav for 15 min was used for the assay. These samples were analyzed for lipofuscin content using human lipofuscin competitive ELISA (MyBiosource; MBS7217173). Following the colorimetric reaction, optical density at 450 nm was read from the standard and the sample wells using Synergy H1 Hybrid Reader (BioTek).
Effect of iron chelators on the accumulation of lipofuscin was monitored by ELISA for lipofuscin or based on lipofuscin autofluorescence. […] Effect of iron chelators on the accumulation of ATP5G was also studied.
As a treatment paradigm, iron-chelators were also added post-accumulation of lipofuscin. L1 and Dfx were added to ANCL iNs after 56 days of lipofuscin accumulation, and levels of ATP5G and lipofuscin were compared over the subsequent 3 weeks.

SMILES	lipofuscin ELISA signal	levels of lipofuscin (ELISA)
CC(=O)N(O)CCCCCNC(=O)CCC(=O)N(O)CCCCCNC(=O)CCC(=O)N(O)CCCCCN [Dfx, N′-[5-(Acetyl-hydroxy-amino)pentyl]-N-[5-[3-(5-aminopentyl-hydroxy-carbamoyl)propanoylamino]pentyl]-N-hydroxy-butane diamide]	significant reduction	reduced to the levels observed in the prevention experiments
Cc1c(O)c(=O)ccn1C [L1, 3-hydroxy-1,2-dimethyl-4(1H)-pyridone]	significant reduction	reduced to the levels observed in the prevention experiments
